One data set deals with T1, tubulin (Sus scrofa, UniProt P02550+P02554).
T1 construct: The procedure used is modified from Shelanski et al; from tissue
The data set is described as follows: Tubulin assembly assay (tubulin binding). Format: biochemical, porcine.

Data set [1] relates to HUVECs. Put plainly: Cell cycle analysis, G2/M phase, PI staining and flow cytometry. In kind it is cell-based, human. Particulars: 24 h treatment. The text has this: Proliferating cells are constantly dividing to produce daughter cells. The most obvious cellular structure that requires duplication and division is the cell nucleus where DNA, cell's genetic material is present. During a cell cycle there are changes in the DNA content and thus there are different cycle stages including G0, G1, S, G2 and M (mitosis). The G0 stage of the cycle is a subset of G1 where the cells are quiescent and have limited cellular functions. Cells remain in the G1 portion of the cycle when are not in a process of cell division and thus G1 phase is the most predominant phase of the cycle appearing as the largest peak. In addition, during the G1 phase synthesis of many RNA and protein molecules is taking place which are necessary for DNA synthesis. G2 phase is a period for repair of any damaged DNA and for reorganisation of the DNA structure before entering the M phase. Cell cycle abnormalities could be a sign of cell damage, for example DNA damage causes interruption of the cell cycle at certain checkpoints such as the spindle assembly checkpoint (SAC) to prevent carcinogenesis.
The mitotic spindle is composed of microtubules which together with regulatory proteins assist in the activity of properly segregating replicated chromosomes. It is well established that treatment of cells with tubulin polymerization inhibitors causes a G2/M phase arrest of the cell cycle and thus an observable increased DNA content at that stage.
For this reason, cell cycle analysis was carried out using propidium iodide (PI) staining. The first protocol was presented by Krishan in 1975 [6]. The first step involves permeabilisation of the cells' plasma membrane by fixating the cells in ethanol in order for the fluorescent DNA dye to pass through the membrane and into the cells. Ribonuclease A (RNase A) was used to eliminate any RNA present inside the cells in order to avoid creating artefacts that could affect the results. PI was used for the staining of the cells' DNA content; however other fluorescent dyes can be used instead, such as DAPI and Hoechst 33342.
Flow cytometry was used to quantify the DNA contents of the cells. This is a technique which was first introduced by Fulwyler which examines and counts cells or other microscopic particles by suspending them in a stream of fluid and passing them by an electronic detection apparatus. Cells had to pass through the flow cytometer's laser where a fluorescence pulse was generated and it correlated with the amount of DNA dye present inside the cells. […]
Cell cycle arrest at the G2/M phase was examined by PI-staining. […] Cell suspension was kept at 4° C. until ready for analysis. […] Samples were analyzed using a Beckman Coulter (Dako) 2-laser CyAn ADP analyser provided by the Department of Biochemistry, TCD. […]
A general note: A flow cytometer gives signals particle by particle.

The target of data set [2] is T2, APN enzyme present on HUVECs (Homo sapiens, UniProt P15144).
T2 construct: The presence of APN-expres sing cells replaced the step of the addition of the actual APN enzyme; host or cells: HUVECs
T2 sequence (P15144 whole entry): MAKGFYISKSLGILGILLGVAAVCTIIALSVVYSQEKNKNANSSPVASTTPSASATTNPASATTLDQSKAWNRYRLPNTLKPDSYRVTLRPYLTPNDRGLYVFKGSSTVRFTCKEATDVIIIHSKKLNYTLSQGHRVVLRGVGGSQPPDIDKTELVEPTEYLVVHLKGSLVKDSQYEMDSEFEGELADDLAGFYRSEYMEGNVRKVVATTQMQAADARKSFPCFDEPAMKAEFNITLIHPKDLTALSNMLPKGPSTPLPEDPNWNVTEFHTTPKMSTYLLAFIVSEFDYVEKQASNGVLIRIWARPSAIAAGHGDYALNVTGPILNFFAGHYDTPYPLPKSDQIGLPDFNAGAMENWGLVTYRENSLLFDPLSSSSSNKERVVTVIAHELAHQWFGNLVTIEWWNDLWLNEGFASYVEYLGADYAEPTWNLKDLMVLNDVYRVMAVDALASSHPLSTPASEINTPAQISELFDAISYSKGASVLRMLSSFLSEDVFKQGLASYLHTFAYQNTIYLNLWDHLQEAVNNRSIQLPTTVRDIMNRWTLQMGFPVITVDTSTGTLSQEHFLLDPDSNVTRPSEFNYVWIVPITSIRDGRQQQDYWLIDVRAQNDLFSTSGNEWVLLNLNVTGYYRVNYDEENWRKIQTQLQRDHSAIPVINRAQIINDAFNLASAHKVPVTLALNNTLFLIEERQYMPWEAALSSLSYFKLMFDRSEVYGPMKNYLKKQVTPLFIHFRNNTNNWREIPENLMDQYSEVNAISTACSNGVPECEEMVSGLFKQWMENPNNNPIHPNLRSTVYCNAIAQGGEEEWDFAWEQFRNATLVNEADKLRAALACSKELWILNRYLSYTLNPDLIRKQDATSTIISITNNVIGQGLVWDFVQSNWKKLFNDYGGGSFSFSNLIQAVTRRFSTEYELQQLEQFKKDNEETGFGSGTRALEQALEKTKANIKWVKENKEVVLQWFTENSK
The data set is described as follows: APN cell-based assay, HUVECs. The method, then: (§1) To further investigate the APN inhibitory effect of the hybrids the APN cell-based assay was carried out as previously described using both HUVECs and PC-3 cells. In order to exclude any possible cytotoxic effects of the tubulin component of the hybrids that could interfere with the outcome of the results, it was necessary to perform cytotoxicity assays. For this purpose, the MTT assay was used as previously described; however the duration of compounds' incubation was modified to 2 h in order to correlate with the incubation period of APN cell-based assay. The presence of APN-expres sing cells replaced the step of the addition of the actual APN enzyme and the rest of the protocol remained the same. The release of the resulting product p-nitroaniline was measured spectrophotometrically at 405 nm and the level of APN present […] the cells was directly related to the intensity of the colour absorbance.
(§2) HUVECs/PC-3 cells' surface APN activity was estimated spectrophotometrically using L-leucine-p-nitroanilide as an APN substrate. 1×10^6 cells/ml ([…]) were seeded in 96-well plate and incubated overnight at 37° C. The following day cell medium was replaced by various concentrations of compounds diluted in HEPES buffer (100 μl). […] L-leucine-p-nitroanilide (50 μl) was added to each well to give a final concentration of 2 mM. Following 2 h incubation at 37° C., absorbance was measured at 405 nm using a FLUOstar OPTIMA microplate reader (BMG labtech). Each compound concentration was tested in quadruplicate and each experiment was performed at three independent times. The percentage APN inhibition was determined using the formula below and where appropriate, IC50 values were obtained.
(§3) % APN inhibition=100−[(mean Abs of test compound)/(mean Abs of control)]*100

Data set [3] deals with T3, APN enzyme present on PC-3 cells (Homo sapiens, UniProt P15144).
T3 construct: PC-3 cell line was selected due to its high expression of APN; host or cells: PC-3
T3 sequence (P15144 whole entry): as above
The data set is described as follows: APN cell-based assay, PC-3 cells. As to the method: as §1, §2, §3

In data set [4] the test system is HUVECs. The data set is described as follows: MTT cytotoxicity assay, HUVECs. In kind it is cell-based, human. The method, then: as §1
Cell growth inhibition was assessed using the MTT assay. 5×10^4 cells/ml HUVECs or PC-3 cells (180 μl) were inoculated into each well of a 96-well plate and incubated overnight at 37° C. Compounds or control solutions (20 μl) were added into each well and the plates were incubated for 72 h. CA-4 was used as a positive control. […] The percentage growth inhibition was determined using the formula below and the results were expressed in terms of IC50 values.

Where [5] appears, read: HUVEC, read-out: percentage APN inhibition.

Where two headings read alike, the source gives them in different places.

T1 sequence (P02550 whole entry): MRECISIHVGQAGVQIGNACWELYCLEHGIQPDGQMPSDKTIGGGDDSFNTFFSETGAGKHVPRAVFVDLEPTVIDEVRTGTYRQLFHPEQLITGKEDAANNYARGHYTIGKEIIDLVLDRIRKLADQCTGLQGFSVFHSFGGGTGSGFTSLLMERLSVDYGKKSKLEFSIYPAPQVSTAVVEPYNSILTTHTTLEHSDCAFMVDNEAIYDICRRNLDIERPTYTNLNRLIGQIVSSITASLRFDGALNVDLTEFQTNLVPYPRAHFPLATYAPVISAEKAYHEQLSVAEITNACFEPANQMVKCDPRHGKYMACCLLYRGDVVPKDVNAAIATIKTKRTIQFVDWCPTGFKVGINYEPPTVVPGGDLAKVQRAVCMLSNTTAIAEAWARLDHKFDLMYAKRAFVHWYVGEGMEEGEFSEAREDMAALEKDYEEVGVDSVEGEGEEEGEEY
T1 sequence (P02554 whole entry): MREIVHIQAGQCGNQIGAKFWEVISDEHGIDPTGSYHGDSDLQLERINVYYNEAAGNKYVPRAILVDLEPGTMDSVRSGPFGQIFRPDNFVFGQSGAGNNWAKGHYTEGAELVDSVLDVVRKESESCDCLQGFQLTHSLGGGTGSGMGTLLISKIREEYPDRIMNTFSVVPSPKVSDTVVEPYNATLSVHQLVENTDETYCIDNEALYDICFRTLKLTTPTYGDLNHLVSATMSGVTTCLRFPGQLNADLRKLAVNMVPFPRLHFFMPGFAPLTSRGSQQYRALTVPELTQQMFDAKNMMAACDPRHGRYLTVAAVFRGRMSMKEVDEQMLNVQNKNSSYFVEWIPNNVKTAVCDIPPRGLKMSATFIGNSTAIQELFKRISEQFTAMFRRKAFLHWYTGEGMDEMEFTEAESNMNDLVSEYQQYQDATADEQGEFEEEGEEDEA
Procedure for tubulin: The buffer was prepared with deionised water and the pH of the solution was adjusted to 6.6 by the drop-wise addition of 10M aq. NaOH. The buffer was stored at 4° C. prior to use.
Equipment: A Fluostar Optima 96 well plate reader equipped with a thermostat capability.
The tubulin assembly was followed by observing an increase in optical density of a tubulin solution at 350 nm at 37° C. Typically 1 ml of tubulin solution was diluted with EB (5 ml) and GTP solution (25 μl, 5 μl per ml of EB added) to the mixture. The mixture was vortexed for ten seconds in order to ensure the homogeneity of the mixture. 100 μl of the resultant solution was pipetted into a well in the 96 well plate. The increase in optical density of the tubulin solution was measured over a time course of ten minutes at 350 nm and 37° C. […] Accordingly, adjustments were made to the quantity of buffer added in order to obtain a protein concentration within the desired range. […] Tubulin solution (1000 was subsequently pipetted into each of the same three wells. The plate was immediately incubated at 37° C. and was subjected to orbital shaking for five seconds. The UV absorption was measured at 350 nm over a time course of ten minutes. The maximum slope of the resulting curve was measured. The slope of the blank represents the maximum rate of tubulin polymerisation.

In general, IC50 refers to the concentration at which inhibition is half-maximal. Take `COc1ccc(C2=CC(=O)CCc3c2cc(OC)c(OC)c3OC)cc1O` [Compound 1, (Z)-8,9-dihydro-5-(3-hydroxy-4-methoxyphenyl)-1,2,3-trimethoxybenzo[7]annulen-7-one]: the IC50 at tubulin came out at 1050 nM. The entries for the “percentage of cells in the G2/M phase” value in the data set with HUVECs [1] (0.5 μM) and with HUVECs [1] (1 μM) were 86.3±2.3% and 79.35±1.7%, respectively.
Consider `COc1ccc(C2=CC(=O)CCc3c2cc(OC)c(OC)c3OC)cc1N` [Compound 28, 2-methoxy-5-(2,3,4-trimethoxy-7-oxo-6,7-dihydro-5H-benzo[7]annulen-9-yl)benzenaminium chloride], for which the “percentage of cells in the G2/M phase” value is listed as 81.25±0.6% with HUVECs [1] (0.5 μM) and 76.07±4.82% in the data set with HUVECs [1] (1 μM).
One may read the inhibition as the relative decrease from the control value, in per cent. On to `COc1ccc(C2=CC(=O)CCc3c2cc(OC)c(OC)c3OC)cc1OC(=O)C(CC(C)C)NC(=O)C(O)C(N)Cc1ccccc1.Cl` (centres unmarked) [Compound 44], for which the inhibition at 0.1 µM in data set [2] (setting [5]) amounted to 31.9 ± 19%. The inhibition at 1 µM in data set [2] (setting [5]) is 52.6 ± 14.7%; in data set [3] (PC-3, read-out: percentage APN inhibition, 1 μM, PC-3 cells, 2 h incubation), 27.8 ± 2.1%. The inhibition at 5 µM in data set [2] (setting [5]) stood at 64 ± 16.1%; in data set [3] (PC-3, read-out: percentage APN inhibition, 5 μM, PC-3 cells, 2 h incubation), 44.6 ± 7.3%. In addition, the “percentage APN inhibition” value is 31.3±8.9% in data set [3] (1 μM, PC-3 cells, 2 h incubation); 51.7±8.5% in data set [3] (5 μM, PC-3 cells, 2 h incubation); 55.7±9.8% in data set [3] (10 μM, PC-3 cells, 2 h incubation); 71.4±7.5% in data set [3] (20 μM, PC-3 cells, 2 h incubation). Further, the inhibition at 10 µM in data set [3] (PC-3, read-out: percentage APN inhibition, 10 μM, PC-3 cells, 2 h incubation) was 63.7 ± 7.68%. Moreover, in data set [3] (PC-3, read-out: percentage APN inhibition, 20 μM, PC-3 cells, 2 h incubation), the inhibition at 20 µM is 53.4 ± 16.1%. In data set [3] (PC-3 cells), the “APN inhibition relative to bestatin” value is given as 2 fold.
In the case of `COc1ccc(C2=CC(=O)COc3c2cc(OC)c(OC)c3OC)cc1OC(=O)C(CC(C)C)NC(=O)C(O)C(N)Cc1ccccc1.Cl` (centres unmarked) [Compound 45, 2-methoxy-5-(7,8,9-trimethoxy-3-oxo-2H-1-benzoxepin-5-yl)phenyl 2-(3-amino-2-hydroxy-4-phenylbutanamido)-4-methylpentanoate], the inhibition at 0.1 µM in data set [2] (HUVEC, 0.1 μM, HUVECs, 2 h incubation, read-out: percentage APN inhibition) worked out at 18.1 ± 2.9%. Also, the inhibition at 0.5 µM in data set [2] (HUVEC, 0.5 μM, HUVECs, 2 h incubation, read-out: percentage APN inhibition) is 21.6 ± 2.2%. Moreover, the “APN inhibition relative to bestatin” value is given as “superior activity to that of bestatin” in data set [2] (HUVECs) and “significantly more potent APN inhibitor than bestatin” in data set [3] (PC-3 cells). In data set [3] (1 μM, PC-3 cells, 2 h incubation, read-out: percentage APN inhibition), the inhibition at 1 µM was found to be 47.9 ± 1.23%. In addition, the inhibition at 5 µM in data set [3] (5 μM, PC-3 cells, 2 h incubation, read-out: percentage APN inhibition) worked out at 51.7 ± 1.38%. Moreover, the inhibition at 10 µM in data set [3] (10 μM, PC-3 cells, 2 h incubation, read-out: percentage APN inhibition) is 51.9 ± 3.89%. The inhibition at 20 µM in data set [3] (20 μM, PC-3 cells, 2 h incubation, read-out: percentage APN inhibition) turned out to be 56.5 ± 3.13%. The “cytotoxic effect on HUVECs” value in the data set on HUVECs [4] is on record as “potent cytotoxic effect”.

For the origin of these results see patent US20150018566A1, “TUBULIN BINDING AGENTS” (priority 2011, published 2015).
